Reference: ChEMBL document CHEMBL1201862, “PubChem BioAssay data set” (2004)
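Assay format: 96-well plates, 48-hour exposure. The concentration for 50% growth inhibition is given as GI50.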 The source made the active and inactive calls. No stated cut-off is given here; in the data, active = GI50 up to about 1.1 µM and inactive = higher.

Key:
Experiment in all cases: NCI-60 cell line screen, 48 h
COLO 205 = test system: COLO 205
OVCAR-3 = test system: OVCAR-3
MCF7 = test system: MCF7
ACHN = test system: ACHN
OVCAR-5 = test system: OVCAR-5
NCI/ADR-RES = test system: NCI/ADR-RES
NCI-H522 = test system: NCI-H522
PC-3 = test system: PC-3
HOP-62 = test system: HOP-62
A498 = test system: A498
HCT-116 = test system: HCT-116
SK-MEL-5 = test system: SK-MEL-5
EKVX = test system: EKVX
CAKI-1 = test system: CAKI-1
TK-10 = test system: TK-10
A549 = test system: A549
SF-295 = test system: SF-295
MDA-MB-435 = test system: MDA-MB-435
SF-268 = test system: SF-268
SR = test system: SR
HOP-92 = test system: HOP-92
SF-539 = test system: SF-539
SK-MEL-28 = test system: SK-MEL-28
UO-31 = test system: UO-31
RXF 393 = test system: RXF 393
U-251 = test system: U-251
MDA-N = test system: MDA-N
OVCAR-8 = test system: OVCAR-8
MDA-MB-231 = test system: MDA-MB-231
UACC-62 = test system: UACC-62
HL-60 = test system: HL-60
SN12C = test system: SN12C
SNB-19 = test system: SNB-19
Hs-578T = test system: Hs-578T
KM12 = test system: KM12
NCI-H460 = test system: NCI-H460
SW-620 = test system: SW-620
K562 = test system: K562
SK-MEL-2 = test system: SK-MEL-2
HCT-15 = test system: HCT-15
M14 = test system: M14
IGROV-1 = test system: IGROV-1
MOLT-4 = test system: MOLT-4
HCC 2998 = test system: HCC 2998
786-0 = test system: 786-0
UACC-257 = test system: UACC-257
Malme-3M = test system: Malme-3M
RPMI-8226 = test system: RPMI-8226
DU-145 = test system: DU-145
HT-29 = test system: HT-29
NCI-H23 = test system: NCI-H23
BT-549 = test system: BT-549
OVCAR-4 = test system: OVCAR-4
LOX IMVI = test system: LOX IMVI
NCI-H226 = test system: NCI-H226
CCRF-CEM = test system: CCRF-CEM
SK-OV-3 = test system: SK-OV-3

Q: What does the source list for `Nc1csc(-c2scc3c2OCCO3)c1N`?
A: GI50 (COLO 205): 28.8 µM (inactive); GI50 (OVCAR-3): 14.8 µM (inactive); GI50 (MCF7): 16.4 µM (inactive); GI50 (ACHN): 36.4 µM (inactive); GI50 (OVCAR-5): 17.6 µM (inactive); GI50 (NCI/ADR-RES): 22.6 µM (inactive); GI50 (NCI-H522): 16.3 µM (inactive); GI50 (PC-3): 23 µM (inactive); GI50 (HOP-62): 15.6 µM (inactive); GI50 (A498): 17.6 µM (inactive); GI50 (HCT-116): 20 µM (inactive); GI50 (SK-MEL-5): 14.9 µM (inactive); GI50 (EKVX): 18.2 µM (inactive); GI50 (CAKI-1): 32.1 µM (inactive); GI50 (TK-10): 33.1 µM (inactive); GI50 (A549): 21.4 µM (inactive); GI50 (SF-295): 17.7 µM (inactive); GI50 (MDA-MB-435): 15.5 µM (inactive); GI50 (SF-268): 18.8 µM (inactive); GI50 (SR): 28.6 µM (inactive); GI50 (HOP-92): 19.4 µM (inactive); GI50 (SF-539): 24.9 µM (inactive); GI50 (SK-MEL-28): 17.5 µM (inactive); GI50 (UO-31): 17.9 µM (inactive); GI50 (RXF 393): 17.9 µM (inactive); GI50 (U-251): 15.6 µM (inactive); GI50 (MDA-N): 15.4 µM (inactive); GI50 (OVCAR-8): 16.1 µM (inactive); GI50 (MDA-MB-231): 20.6 µM (inactive); GI50 (UACC-62): 14.4 µM (inactive); GI50 (HL-60): 20.5 µM (inactive); GI50 (SN12C): 17.3 µM (inactive); GI50 (SNB-19): 32.7 µM (inactive); GI50 (Hs-578T): 27.8 µM (inactive); GI50 (KM12): 20.4 µM (inactive); GI50 (NCI-H460): 22.5 µM (inactive); GI50 (SW-620): 26.2 µM (inactive); GI50 (K562): 24.4 µM (inactive); GI50 (SK-MEL-2): 17.5 µM (inactive); GI50 (HCT-15): 17.7 µM; GI50 (M14): 17.8 µM (inactive); GI50 (IGROV-1): 22.5 µM (inactive); GI50 (MOLT-4): 27.8 µM (inactive); GI50 (HCC 2998): 22.4 µM (inactive); GI50 (786-0): 17.3 µM (inactive); GI50 (UACC-257): 16.7 µM (inactive); GI50 (Malme-3M): 16 µM (inactive); GI50 (RPMI-8226): 16.9 µM (inactive); GI50 (DU-145): 19.8 µM (inactive); GI50 (HT-29): 20.7 µM (inactive); GI50 (NCI-H23): 15.5 µM (inactive); GI50 (BT-549): 16.5 µM (inactive); GI50 (OVCAR-4): 26.6 µM (inactive); GI50 (LOX IMVI): 16 µM (inactive); GI50 (NCI-H226): 17.3 µM (inactive)

Q: For `O=C1CSC(=S)N1c1ccco1`, which GI50 (COLO 205) is on record?
A: 79.4 µM (inactive)

Q: And the GI50 (OVCAR-3)?
A: 77.8 µM (inactive)

Q: And the GI50 (MCF7)?
A: 39.2 µM (inactive)

Q: And the GI50 (ACHN)?
A: > 100 µM (inactive)

Q: What about the GI50 (OVCAR-5) of the same molecule?
A: > 100 µM (inactive)

Q: What about the GI50 (NCI/ADR-RES) of the same molecule?
A: 37.9 µM (inactive)

Q: And the GI50 (NCI-H522)?
A: 23.4 µM (inactive)

Q: What about the GI50 (PC-3) of the same molecule?
A: 71.3 µM (inactive)

Q: And the GI50 (HOP-62)?
A: > 100 µM (inactive)

Q: And the GI50 (A498)?
A: > 100 µM (inactive)

Q: What about the GI50 (HCT-116) of the same molecule?
A: 60.4 µM (inactive)

Q: What about the GI50 (SK-MEL-5) of the same molecule?
A: 43 µM (inactive)

Q: And the GI50 (EKVX)?
A: > 100 µM (inactive)

Q: And the GI50 (CAKI-1)?
A: > 100 µM (inactive)

Q: And the GI50 (TK-10)?
A: > 100 µM (inactive)

Q: What about the GI50 (A549) of the same molecule?
A: > 100 µM (inactive)

Q: What about the GI50 (SF-295) of the same molecule?
A: > 100 µM (inactive)

Q: And the GI50 (MDA-MB-435)?
A: 24.2 µM (inactive)

Q: And the GI50 (SF-268)?
A: > 100 µM (inactive)

Q: What about the GI50 (SR) of the same molecule?
A: > 100 µM (inactive)

Q: What about the GI50 (HOP-92) of the same molecule?
A: > 100 µM (inactive)

Q: What about the GI50 (SF-539) of the same molecule?
A: 66.7 µM (inactive)

Q: What about the GI50 (SK-MEL-28) of the same molecule?
A: > 100 µM (inactive)

Q: And the GI50 (RXF 393)?
A: > 100 µM (inactive)

Q: What about the GI50 (U-251) of the same molecule?
A: > 100 µM (inactive)

Q: What about the GI50 (MDA-N) of the same molecule?
A: 19.8 µM (inactive)

Q: And the GI50 (OVCAR-8)?
A: 56.5 µM (inactive)

Q: And the GI50 (MDA-MB-231)?
A: 31.8 µM (inactive)

Q: And the GI50 (HL-60)?
A: 32.6 µM (inactive)

Q: And the GI50 (SN12C)?
A: 57.1 µM (inactive)

Q: What about the GI50 (SNB-19) of the same molecule?
A: > 100 µM (inactive)

Q: And the GI50 (Hs-578T)?
A: > 100 µM (inactive)

Q: What about the GI50 (CCRF-CEM) of the same molecule?
A: > 100 µM (inactive)

Q: What about the GI50 (KM12) of the same molecule?
A: 21.9 µM (inactive)

Q: What about the GI50 (NCI-H460) of the same molecule?
A: > 100 µM (inactive)

Q: And the GI50 (SW-620)?
A: 41.1 µM (inactive)

Q: What about the GI50 (K562) of the same molecule?
A: > 100 µM (inactive)

Q: And the GI50 (SK-MEL-2)?
A: 46.7 µM (inactive)

Q: And the GI50 (HCT-15)?
A: 22 µM

Q: And the GI50 (M14)?
A: 44.2 µM (inactive)

Q: What about the GI50 (IGROV-1) of the same molecule?
A: > 100 µM (inactive)

Q: And the GI50 (MOLT-4)?
A: > 100 µM (inactive)

Q: What about the GI50 (786-0) of the same molecule?
A: 25.4 µM (inactive)

Q: What about the GI50 (UACC-257) of the same molecule?
A: > 100 µM (inactive)

Q: What about the GI50 (Malme-3M) of the same molecule?
A: > 100 µM (inactive)

Q: What about the GI50 (RPMI-8226) of the same molecule?
A: 59.3 µM (inactive)

Q: And the GI50 (DU-145)?
A: > 100 µM (inactive)

Q: And the GI50 (HT-29)?
A: > 100 µM (inactive)

Q: What about the GI50 (NCI-H23) of the same molecule?
A: > 100 µM (inactive)

Q: And the GI50 (BT-549)?
A: 16.3 µM (inactive)

Q: And the GI50 (OVCAR-4)?
A: > 100 µM (inactive)

Q: And the GI50 (LOX IMVI)?
A: 79.6 µM (inactive)

Q: What about the GI50 (SK-OV-3) of the same molecule?
A: > 100 µM (inactive)

Q: What about the GI50 (NCI-H226) of the same molecule?
A: > 100 µM (inactive)
